Laboratory results published in patent US20210275657A1, “NEOANTIGENS AND USES THEREOF” (BioNTech US Inc., priority 2018, published 2021).
Where no end group is shown, it is not given here.

Experiments:
[1] = target: indicated HLA alleles (Homo sapiens, UniProt P01889); assay: Affinity of mutant BTK neopeptides for indicated HLA alleles; type: binding
Protocol: (§1) Multiple peptides containing neoepitopes in the table below were either expressed or loaded onto antigen presenting cells. Mass spectrometry was then performed and the affinity of the neoepitopes for indicated HLA alleles were determined, and the stability of the neoepitopes with the HLA alleles were determined.

[2] = target: indicated HLA alleles; assay: as above; type: binding, human; conditions: BTK_C481S
Protocol: as §1

[3] = system: indicated HLA alleles; assay: Stability of mutant BTK neopeptides with the HLA alleles; type: binding, human; conditions: BTK_C481S
Protocol: as §1

[4] = target: indicated HLA alleles; assay: Affinity of GATA3 neoORF neoepitopes for the indicated HLA alleles (Example 9, Table 4); type: binding, human; conditions: Allele A02.01; read-out: Observed MHC affinity
Protocol: (§2) Multiple peptides containing the neoepitopes in Table 4 below were expressed or loaded onto antigen presenting cells (APCs). Mass spectrometry was then performed and the affinity of the neoepitopes for the indicated HLA alleles and stability of the neoepitopes with the HLA alleles was determined.

[5] = system: indicated HLA alleles; assay: Stability of GATA3 neoORF neoepitopes with the HLA alleles (Example 9, Table 4); type: binding, human; conditions: Allele A02.01
Protocol: as §2

[6] = target: T1, HLA-A02:01 (Homo sapiens, UniProt P04439, D140Y/D185E/D98H/E176V/E277Q/G131W/G231S/I119V/I121R/I166T/I218V/L300P/L318F/N151K/N90K/P208A/P217A/Q86G/Q94H/R138H/R169H/T345S); assay: Affinity measurements, competition with radiolabeled peptide (Example 20); type: binding
[7] = target: T1, HLA-A02:01; assay: Stability measurements, pMHC-I dissociation with 125I light chain (Example 20); type: binding
Protocol: To measure the binding stability of peptides to Class I MHC, synthetic genes encoding biotinylated MHC-I heavy and light chains are expressed in E. coli and purified from inclusion bodies using standard methods. […] These reactions were carried out in streptavidin coated microplates to bind the biotinylated MHC-I heavy chains to the surface and allow measurement of radiolabeled light chain to monitor complex formation. Dissociation was initiated by addition of higher concentrations of unlabeled light-chain and incubation at 37° C. Stability was defined as the length of time in hours it takes for half of the complexes to dissociate, as measured by scintillation counts. Duplicate measurements were performed. The average of the two measurements was taken as the stability.

Molecule	Kd [1]	Kd ([2]; HLA A02.01)	Kd ([2]; HLA B08.01)	Stability (1/2 hr) ([3]; HLA A02.01)	Stability (1/2 hr) ([3]; HLA B07.02)	Stability (1/2 hr) ([3]; HLA B08.01)	Kd [4]	Observed MHC stability [5]	IC50 [6]	Experiment 1 half-life [7]	Experiment 2 half-life [7]	Average half-life ([7]; average of experiments 1 and 2)
CSCC[C@H](NC(=O)[C@H](CCC(=O)O)NC(=O)[C@H](CCCNC(=N)N)NC(=O)[C@H](CC(C)C)NC(=O)[C@H](Cc1ccc(O)cc1)NC(=O)[C@H](CC(N)=O)NC(=O)[C@H](CC(C)C)NC(=O)[C@H](CC(C)C)NC(=O)[C@@H](N)CO)C(=O)O	0.866 µM	0.0677 µM	0.96 µM	3.044 h	0 h	0 h	–	–	–	–	–	–
TLQRSSLWCL	–	–	–	–	–	–	0.118 µM	0.5 h	0.281 µM	30 min	30 min	30 min
